“And” between values parts separate entries of the source, which are not always exact repeats. Equal entries are not always repeated. Where two headings read alike, the source gives them in different places.
Legend:
HEL cells = test: Cell proliferation assay (CCK-8), HEL cells; assay type: cell-based, human
Description: (§1) The human erythroid leukemia (HEL 92.1.7) cells were purchased from the American Type Culture Collection (ATCC, TIB-180), and the human megakaryoblastic (SET2) cells were obtained from German Collection of Microorganisms and Cell Cultures (DSMZ, ACC 608). The anti-proliferative activities of compounds were evaluated using WST-8 cell counting kit-8 (Elabscience). HEL and SET-2 cells were seeded at 5000 cells/well in 70 μL RPMI-1640 medium (Hyclon) with 10% FBS (Gibco) to the 96-well plate and incubated overnight at 37 °C with 5% CO2. The compounds were serially diluted in RPMI-1640 medium, and cells were treated separately with 30 μL various concentrations of compounds for 72 h. The final DMSO concentration in the culture wells was 0.1%, which had no effect on the cell viability. Finally, 10 μL of CCK-8 solution was added into the wells. 4 h later, the absorbance values at 450 nm were recorded. IC50 values were determined using GraphPad Prism v8.3.0, and three parallel experiments were performed.

DSS-induced colitis mice = test: In vivo efficacy study, DSS-induced colitis model; design: species or system male BALB/c mice; settings: Fedratinib 10 mg/kg; for DAI score (Fig. 6b) / Body weight (Fig. 6a): individual mice
Description: Model mice were divided into four groups and eight mice were included in each group on day 8. […] Meanwhile, solvent was given intragastrically to the control group and model group. On day 15, the mice were sacrificed, and the length and weight of each colon were measured.
Body weight, the stool consistency, and the presence of blood in feces were recorded daily in the morning. […] The maximum score was 9, which was the sum of the scores. About 1-cm colon tissue, which is 0.5 cm away from the anal margin, was collected, and the ileocecal area was used for histopathological examination. After H&E staining, the tissues were scored under single-blind conditions to evaluate the levels of inflammation and tissue damage in the colons following the criteria proposed by ref. [62]. Statistical analyses were performed using SPSS v24.0.

In vivo PK study in mice = settings: male, BALB/c, mouse, plasma, 5 mg/kg
Description: The mice were separately administered to a group of three mice per time point for intravenous (5 mg/kg) or oral administration (5 mg/kg). […] Then the samples were separated by centrifugation and analyzed by LC-MS/MS (XEVO TQ-S) to determine the plasma drug concentrations. The PK parameters were calculated using the noncompartment model with Phoenix WinNonLin v8.0. The animal experimental procedures were approved by the Medicine Research Ethics Committee of Hangzhou Leading Pharmatech Co., Ltd.

SET-2 cells = test: Cell proliferation assay (CCK-8), SET-2 cells; assay type: cell-based, human; settings: for Inhibition (%): single wells of replicate 1 and replicate 2
Description: as §1
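Wherever Cmax is given: mice dosed intravenously or orally, three animals per time point, plasma drug levels quantified by LC-MS/MS, PK parameters derived by noncompartmental analysis in Phoenix WinNonLin.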
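Wherever Tmax is given: mice dosed intravenously or orally, three animals per time point, plasma drug levels quantified by LC-MS/MS, PK parameters derived by noncompartmental analysis in Phoenix WinNonLin.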

Cc1cnc(Nc2ccc(OCCN3CCCC3)cc2)nc1Nc1cccc(S(=O)(=O)NC(C)(C)C)c1 [Fedratinib]
Inhibition (%) (HEL cells; HEL cell lines, 0.0977 μM, single wells, replicates 1 and 2): 3.834% and 2.092% and -5.316% and -2.068% and -2.146% and 0.251% | Inhibition (%) (HEL cells; HEL cell lines, 0.1953 μM, single wells, replicates 1 and 2): 5.577% and 4.096% and -7.320% and -6.244% and 7.056% and 1.643% | Inhibition (%) (HEL cells; HEL cell lines, 0.3906 μM, single wells, replicates 1 and 2): 16.296% and 7.233% and 2.004% and -5.316% and 4.195% and -1.991% | Inhibition (%) (HEL cells; HEL cell lines, 0.7813 μM, single wells, replicates 1 and 2): 26.492% and 16.296% and 14.205% and 10.690% and 13.319% and 1.875% | Inhibition (%) (HEL cells; HEL cell lines, 1.5625 μM, single wells, replicates 1 and 2): 66.754% and 58.911% and 59.608% and 37.908% and 40.692% and 44.790% | Inhibition (%) (HEL cells; HEL cell lines, 3.1250 μM, single wells, replicates 1 and 2, 3.125 µM): 88.628% and 87.669% and 91.881% and 90.412% and 89.871% | Inhibition (%) (HEL cells; HEL cell lines, 6.2500 μM, single wells, replicates 1 and 2, 6.25 µM): 90.893% and 89.499% and 94.355% and 93.737% and 94.510% | Inhibition (%) (HEL cells; HEL cell lines, 12.5000 μM, single wells, replicates 1 and 2, 12.5 µM): 91.590% and 91.503% and 95.902% (2×) and 96.056% | IC50 (HEL cells; HEL cell lines, single-replicate fits, read-out: IC50/μM (individual replicates), cellular antiproliferative activity): 1.38 µM | IC50 (HEL cells; Homo sapiens, HEL, 72 h, HEL cells, 72 h, mean ± SD, read-out: Cellular Antiproliferative Activity (IC50) HEL): 1.34 ± 0.06 µM | inhibition at 3.125 µM (HEL cells; Homo sapiens, HEL, HEL cell lines, 3.1250 μM, single wells, replicates 1 and 2): 90.5% | inhibition at 6.25 µM (HEL cells; Homo sapiens, HEL, HEL cell lines, 6.2500 μM, single wells, replicates 1 and 2): 92.1% | inhibition at 12.5 µM (HEL cells; Homo sapiens, HEL, HEL cell lines, 12.5000 μM, single wells, replicates 1 and 2): 93.2% | inhibition at 25 µM (HEL cells; Homo sapiens, HEL, HEL cell lines, […], single wells, replicates 1 and 2): 94.5% | IC50 (HEL cells; Homo sapiens, HEL, HEL cell lines, mean of 2 replicates, read-out: IC50/μM mean, cellular antiproliferative activity): 1.34 µM | IC50 (HEL cells; Homo sapiens, HEL, HEL cell lines, mean ± sd of 2 replicates, read-out: IC50/μM mean ± sd, cellular antiproliferative activity): 1.34 ± 0.06 µM | IC50 (HEL cells; Homo sapiens, HEL, HEL cell lines, single-replicate fits, read-out: IC50/μM (individual replicates), cellular antiproliferative activity): 1.29 µM | histological scores (H&E, Ameho criteria) (DSS-induced colitis mice; 3.5% DSS colitis mice, compound 3 5 mg/kg): lower | body weight change (DSS-induced colitis mice; 3.5% DSS colitis mice, compound 3 5 mg/kg, intragastric, day 8 to day 14): alleviate the decrease of body weight | DAI score (Fig. 6b) (DSS-induced colitis mice; day 0): 0 | Body weight (Fig. 6a) (DSS-induced colitis mice; day 0, in g (unit assumed)): 22.2 and 22.7 and 23.9 and 22.6 and 19.9 and 23.6 and 20.6 and 23.1 | DAI score (Fig. 6b) (DSS-induced colitis mice; day 1): 1 (4×) and 0 (4×) | Body weight (Fig. 6a) (DSS-induced colitis mice; day 1, in g (unit assumed)): 21.3 and 24.2 and 23.6 and 23.8 and 21.7 and 23.2 and 20.9 and 22 | DAI score (Fig. 6b) (DSS-induced colitis mice; day 2): 0 (3×) and 1 (5×) | Body weight (Fig. 6a) (DSS-induced colitis mice; day 2, in g (unit assumed)): 22.6 and 23.8 | DAI score (Fig. 6b) (DSS-induced colitis mice; day 3): 0 (5×) and 1 (3×) | Body weight (Fig. 6a) (DSS-induced colitis mice; day 4): 21.8 and 22.7 and 23.6 (2×) and 22.3 and 21.7 and 19.8 and 23.2 | DAI score (Fig. 6b) (DSS-induced colitis mice; day 4): 1 (5×) and 3 (2×) and 0 | DAI score (Fig. 6b) (DSS-induced colitis mice; day 5): 0 (3×) and 3 (2×) and 1 and 4 and 2 | Body weight (Fig. 6a) (DSS-induced colitis mice; day 5, in g (unit assumed)): 22 and 21.8 and 23.1 and 21 and 21.9 and 23.6 and 18.9 and 22.7 | DAI score (Fig. 6b) (DSS-induced colitis mice; day 6): 1 (4×) and 6 and 7 and 2 and 5 | Body weight (Fig. 6a) (DSS-induced colitis mice; day 6, in g (unit assumed)): 22.1 and 20.1 and 22.6 and 19.3 and 21.5 and 23.6 and 17.1 and 20.5 | Body weight (Fig. 6a) (DSS-induced colitis mice; day 7): 21.8 (2×) and 19 and 22.5 and 18.2 and 23.9 and 16 and 18.3 | DAI score (Fig. 6b) (DSS-induced colitis mice; day 7): 2 (2×) and 7 (3×) and 0 and 3 and 6 | DAI score (Fig. 6b) (DSS-induced colitis mice; day 8): 0 (5×) and 3 (2×) and 6 | Body weight (Fig. 6a) (DSS-induced colitis mice; day 8, in g (unit assumed)): 22.3 and 18.8 and 23.8 and 18.6 and 21.7 and 24 and 15.6 and 17.2 | DAI score (Fig. 6b) (DSS-induced colitis mice; day 9): 0 (5×) and 3 (2×) and 1 | Body weight (Fig. 6a) (DSS-induced colitis mice; day 9, in g (unit assumed)): 22.3 and 19.4 and 23.7 and 19.1 and 19.3 and 24.2 and 15.3 | DAI score (Fig. 6b) (DSS-induced colitis mice; day 10): 2 (2×) and 1 (3×) and 0 (2×) | Body weight (Fig. 6a) (DSS-induced colitis mice; day 10, in g (unit assumed)): 21.6 and 18.4 and 23.8 and 19.7 and 19 and 23.6 and 15.4 | DAI score (Fig. 6b) (DSS-induced colitis mice; day 11): 0 (5×) and 1 and 2 | Body weight (Fig. 6a) (DSS-induced colitis mice; day 11, in g (unit assumed)): 21.9 and 18.6 and 23.5 and 20.2 and 18.7 and 23.6 and 16 | DAI score (Fig. 6b) (DSS-induced colitis mice; day 12): 0 (5×) and 1 | Body weight (Fig. 6a) (DSS-induced colitis mice; day 12, in g (unit assumed)): 22.2 and 19.1 and 24.1 and 19.9 and 19.4 and 23.8 and 16 | Body weight (Fig. 6a) (DSS-induced colitis mice; day 13, in g (unit assumed)): 21.9 and 19.8 and 24.2 and 20.4 and 20.1 and 24 and 16.1 | Body weight (Fig. 6a) (DSS-induced colitis mice; day 14, in g (unit assumed)): 22.6 and 20.3 and 24.5 and 20.4 and 20.8 and 24.1 and 16.5 | HE staining score (Fig. 6d) (DSS-induced colitis mice; individual colon tissues (n = 5)): 1 and 3 and 0 | symptoms in DSS-induced murine colitis (DSS-induced colitis mice; compound 3 5 mg/kg): ameliorate the symptoms | AUC(0-inf) (In vivo PK study in mice; iv): 227 ng·h/mL | Cmax (In vivo PK study in mice; iv): 275 ng/mL | Tmax (In vivo PK study in mice; iv): 4.98 min | half-life (In vivo PK study in mice; iv): 18 min | bioavailability (In vivo PK study in mice; oral): 11.7% | AUC(0-inf) (In vivo PK study in mice; po): 50.2 ng·h/mL | Cmax (In vivo PK study in mice; po): 6.81 ng/mL | Tmax (In vivo PK study in mice; po): 60 min | half-life (In vivo PK study in mice; po): 282 min | IC50 (SET-2 cells; Homo sapiens, SET-2, 72 h, SET-2 cells, 72 h, mean ± SD, read-out: Cellular Antiproliferative Activity (IC50) SET-2): 1.12 ± 0.08 µM | IC50 (SET-2 cells; Homo sapiens, SET-2, SET-2 cell lines, mean of two replicates, read-out: IC50/μM mean): 1.12 µM | IC50 (SET-2 cells; Homo sapiens, SET-2, SET-2 cell lines, mean ± sd of two replicates, read-out: IC50/μM mean ± sd): 1.12 ± 0.08 µM | IC50 (SET-2 cells; Homo sapiens, SET-2, SET-2 cell lines, value of each single replicate, read-out: IC50/μM): 1.07 µM | Inhibition (%) (SET-2 cells; SET-2 cell lines, C 0.0977 μM): 12.0389% and 5.1759% and -0.6577% and 17.763% and 22.009% and 18.591% | Inhibition (%) (SET-2 cells; SET-2 cell lines, C 0.1953 μM): 22.4478% and 11.8101% and 6.6629% and 13.309% and 23.874% and 25.324% | Inhibition (%) (SET-2 cells; SET-2 cell lines, C 0.3906 μM): 33.6574% and 13.6403% and 14.6697% and 30.399% and 33.402% and 33.506% | Inhibition (%) (SET-2 cells; SET-2 cell lines, C 0.7813 μM): 33.8862% and 39.7198% and 32.9711% and 35.163% and 37.960% and 48.110% | Inhibition (%) (SET-2 cells; SET-2 cell lines, C 1.5625 μM): 69.3452% and 65.5705% and 67.2862% and 30.399% and 43.553% and 55.671% | Inhibition (%) (SET-2 cells; SET-2 cell lines, C 3.1250 μM): 88.2185% and 85.2445% and 86.3883% and 75.039% and 80.010% and 81.357% | Inhibition (%) (SET-2 cells; SET-2 cell lines, C 6.2500 μM): 86.3883% and 85.8164% and 88.9048% and 71.725% and 72.139% and 76.385% | Inhibition (%) (SET-2 cells; SET-2 cell lines, C 12.5000 μM): 97.7123% and 97.3692% (2×) and 89.643% (2×) and 91.093% | IC50 (SET-2 cells; SET-2 cell lines, value of each single replicate, read-out: IC50/μM): 1.16 µM
